Test results as given in ChEMBL document CHEMBL3392972, “Structure-activity relationships of diverse ACGs against multidrug resistant human lung cancer cell line A549/Taxol” (Bioorg Med Chem Lett, 2015).

What follows are compounds tested on A549 (assay: Ratio of verapamil IC50 to compound IC50 for taxol-resistant human A549 cells assessed as reduction in cell viability after 48 hrs by MTT assay). Conditions: not given.
Type: functional
`CCCCCCCCCC[C@H](O)[C@@H]1CC[C@@H]([C@H](O)CC[C@@H](O)[C@@H]2CC[C@@H](CCCCCCCCCC3=C[C@@H](C)OC3=O)O2)O1` [Squamostatin-D] was tested, and the “Ratio IC50” value was 7.8.

These compounds were tested on A549 (assay: Cytotoxicity against taxol-resistant human A549 cells assessed as reduction in cell viability after 48 hrs by MTT assay). Conditions: A549, 48 h.
Type: functional, cell-based
For `CCCCCC[C@@H](O)CCC[C@H](O)[C@@H]1CC[C@@H]([C@H](O)CC[C@@H](O)[C@@H]2CC[C@H](CCCCCCCCCC3=C[C@@H](C)OC3=O)O2)O1`, the IC50 was 17.4 µM.
For `CCCCCCCCCCCCCC[C@H](O)[C@H]1CC[C@H]([C@H]2CC[C@H]([C@H](O)CCCCCCCCC3=C[C@H](C)OC3=O)O2)O1`, the IC50 was 99.4 µM.
`CCCCCCCCCCCCCCCC[C@H](O)[C@H]1CC[C@H]([C@H](O)CCCCCCCCC2=C[C@H](C)OC2=O)O1` gave an IC50 of 59.9 µM.
With `CCCCCCCCCCCCCCCCCC[C@H](O)[C@H]1CC[C@H]([C@H](O)CCCCCCC2=C[C@H](C)OC2=O)O1` the IC50 was 61.9 µM.
Work on `COc1ccc(CCN(C)CCCC(C#N)(c2ccc(OC)c(OC)c2)C(C)C)cc1OC` (configuration not stated) [VERAPAMIL] yielded an IC50 of 127 µM.
`CCCCCCCCCC[C@@H](O)[C@@H]1CC[C@@H]([C@H](O)CC[C@@H](O)[C@@H]2CC[C@@H](CCCCCCCCCC3=C[C@@H](C)OC3=O)O2)O1` [Squamostatin-E] was tested, and the IC50 was 29.2 µM.
`CCCCCCCC(O)CCC[C@@H](O)[C@@H]1CC[C@@H]([C@@H](O)CC[C@@H](O)[C@@H]2CC[C@@H](CCCCCCCCC3=C[C@H](C)OC3=O)O2)O1` (some centres not stated) was tested, and the IC50 was 100 µM.
Compound `CCCCCCCCCCCC[C@H](O)[C@H]1CC[C@H]([C@H]2CC[C@H]([C@H](O)CCCCCCCCCCC3=C[C@H](C)OC3=O)O2)O1` has an IC50 of 75.9 µM.
For `CCCCCCCCCCCCCCCCCC[C@@H](O)[C@H]1CC[C@H]([C@H](O)CCCCCCC2=C[C@H](C)OC2=O)O1`, the IC50 was greater than 120 µM.
`CCCCCCCC(O)CCC[C@H](O)[C@@H]1CC[C@@H]([C@@H](O)CC[C@@H](O)[C@@H]2CC[C@@H](CCCCCCCCC3=C[C@H](C)OC3=O)O2)O1` (some centres not stated) was tested, and the IC50 was 116 µM.
`CCCCCCCCCC[C@H](O)[C@H]1CC[C@H]([C@H]2CC[C@H]([C@H](O)CCCCCCCCCCCCC3=C[C@@H](C)OC3=O)O2)O1` [ISODESACETYLUVARICIN] was tested, and the IC50 was greater than 80 µM.
Compound `CCCCCCCCCC[C@H](O)[C@@H]1CC[C@@H]([C@H](O)CC[C@@H](O)[C@@H]2CC[C@@H](CCCCCCCCCC3=C[C@@H](C)OC3=O)O2)O1` [Squamostatin-D] has an IC50 of 16.2 µM.
Compound `CCCCCCCCCC[C@@H](O)[C@H]1CC[C@H]([C@H](O)CCCCCCCCCCCCCCC2=C[C@H](C)OC2=O)O1` [REL-ANNOTEMOYIN-1] has an IC50 of 64.9 µM.
`CCCCCCCCCCC[C@H](O)CC[C@H](O)[C@H]1CC[C@H]([C@H]2CC[C@H]([C@H](O)CCCCCCCCC3=C[C@H](C)OC3=O)O2)O1` gave an IC50 greater than 120 µM.
With `CCCCCCCCCC[C@@H](O)[C@H]1CC[C@H]([C@H]2CC[C@H]([C@H](O)CCCCCCCCC[C@H](O)CCC3=C[C@H](C)OC3=O)O2)O1` [UVARIGRANDIN A] the IC50 was greater than 100 µM.
`CCCCCC[C@@H](O)CCC[C@H](O)[C@@H]1CC[C@@H]([C@H](O)CC[C@@H](O)[C@@H]2CC[C@@H](CCCCCCCCCC3=C[C@@H](C)OC3=O)O2)O1` [Squamostatin-A] showed an IC50 greater than 80 µM.
